Experimental findings from patent publication US8183243B2, “Melanocortin receptor agonists” (LG Life Sciences Ltd., priority 2008, dated 2012) are described below.

The test addresses T1, MC4R (Homo sapiens, UniProt P32245).
T1 construct: expressed in transfected cells; host or cells: HEK (Human Embryonic Kidney) permanent expression cell line HEK MC4R-Luc, co-expressing CRE-luciferase
Description: MCR agonistic activity (luciferase assay / cAMP accumulation assay) on MC4R. It is filed as cell-based. Particulars: HEK cell lines expressing MC4R, not said which. Here is the method:
Physiological activity of the compounds of the present invention was assessed by measuring agonistic activity as well as binding activity for melanocortin receptors (MCR) according to methods A and B explained as follows.
As one of the methods to measure MCR agonistic activity of the compound according to the present invention, the expression level of a marker gene (for example, luciferase) which increases proportionally according to the increase of cAMP content in the cell, was measured.
First, permanent expression HEK (Human Embryonic Kidney) cell lines (HEK MC1R-Luc, MC3R-Luc, MC4R-Luc or MC5R-Luc) expressing the MCR gene of each subtype together with luciferase gene (CRE-LUC) under the control of CRE (cAMP Response Element) were constructed. The above cell lines were incubated in an incubator with 6% CO2 atmosphere at 37° C. using selection medium, DMEM(Dulbecco's Modified Eagles Medium) containing 10% heat-inactivated fetal bovine serum (Gibco/BRL), 100 unit/ml, penicillin (Gibco/BRL), 100 unit/ml streptomycin (Gibco/BRL), and 200 μg/ml geneticin (G418) (Gibco/BRL). When the cell covered 70% of total surface of the culture dish with 100 mm diameter, the culture dish was rinsed one time with 10 ml Phosphate Buffered Saline(PBS) free of Ca^++ and Mg^++, and then 3 ml PBS solution containing 0.05% trypsin and 0.53 mM EDTA was added thereto. After the trypsin/EDTA solution was removed, the cell lines were incubated in an thermostatic incubator for 1 minute at 37° C., and resuspended in 10 ml selection medium and centrifuged for 5 minutes at 1500 rpm. The supernatant was discarded and the settled cells were resuspended in 5 ml selection medium free of Phenol Red. The resulting cell-suspension was plated onto each well of 96-well culture plates for Luminometer(Costar) with a concentration of 5×10^4 cell in 100 μl culture medium for each well and incubated in the incubator with 6% CO2 atmosphere at 37° C. for 18 hours. With MCR agonists (Example compounds) diluted stepwise using the above culture medium, the cells were treated under the condition of the final DMSO concentration not exceeding 1%, and incubated for 5 hours in the atmosphere of 6% CO2 at 37° C. Then, 50 μl Bright-Glo (Promega) was added to each well. After allowing the treated cells to be at room temperature for 15 minutes, luminescence was measured for each well by using luminometer (Victor). The level of luminescence induced by the stepwise-diluted agonist was converted to relative % value to those by the treatment of 10 nM NDP-MSH. The EC50 indicates the concentration of each agonist for inducing 50% of maximal luminescence by each agonist and this value was measured by a statistical software (Prizm).
B. cAMP Accumulation Assay
As another method to measure MCR agonistic activity of the compound according to the present invention, an increase of cAMP amount in the cell was measured.
First, permanent expression HEK (Human Embryonic Kidney) cell lines (HEK MC1R-Luc, MC3R-Luc, MC4R-Luc or MCSR-Luc) expressing the MCR gene of each subtype were plated onto each well of 24-well culture plates for Luminometer(Costar) with a concentration of 2×10^5 cell in 1 ml culture medium for each well, and then incubated in an incubator with 6% CO2 atmosphere at 37° C. for 24 hours. The medium was removed from each well followed by rinsing with 0.5 ml cold DMEM one time. With MCR agonists (Example compounds) diluted stepwise using 200 μl DMEM including 500 μM IBMX (isobutylmethylxanthine), the cells were treated under the condition of the final DMSO concentration not exceeding 1%, and incubated for 30 minutes in the atmosphere of 6% CO2 at 37° C. Then, the cAMP amount in each cell was measured using Amersham cAMP assay Kit (TRK432).
More specifically, 14.4 μl of 6M PCA (60%) was added to each well, and allowed to be in ice for 10 minutes, and 200 μl sample was taken from each well and transferred to microcentrifuge tube. […]
In general terms: cAMP levels reflect the balance of adenylyl cyclase and phosphodiesterase activity.

[1] abbreviates: method A (CRE-luciferase) or B (cAMP accumulation), read-out: EC50 value, agonistic activity to MC4R (range per group of Examples).
The mark [2] stands for this setting: specific activities of representative compounds, method A or B, read-out: EC50.

Read-outs that look alike come from different tables or passages of the source.

T1 sequence (P32245 whole entry, species assumed): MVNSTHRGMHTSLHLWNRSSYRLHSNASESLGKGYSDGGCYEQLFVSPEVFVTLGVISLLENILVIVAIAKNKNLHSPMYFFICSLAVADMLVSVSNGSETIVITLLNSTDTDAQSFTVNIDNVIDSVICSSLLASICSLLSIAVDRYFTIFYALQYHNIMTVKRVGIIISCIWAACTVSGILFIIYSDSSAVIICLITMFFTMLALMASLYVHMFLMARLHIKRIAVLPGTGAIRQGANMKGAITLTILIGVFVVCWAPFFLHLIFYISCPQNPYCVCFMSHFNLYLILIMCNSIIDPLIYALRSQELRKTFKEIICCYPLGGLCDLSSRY

Broadly, the EC50 is the midpoint of the concentration-response curve. With `CN1CCN(C(=O)[C@H]2C[C@H](N(C(=O)[C@@H]3CCCO3)[C@H]3CC[C@@H](C)CC3)CN2C(=O)[C@@H]2CN(C(C)(C)C)C[C@H]2c2ccc(Cl)cc2)CC1` (relative stereo) [Example 35, (2S)-N-{(3S,5R)-1-{[(3S,4R)-1-tert-butyl-4-(4-chlorophenyl)pyrrolidin-3-yl]carbonyl}-5-[(4-methylpiperazin-1-yl)carbonyl]pyrrolidin-3-yl}-N-(cis-4-methylcyclohexyl)tetrahydrofuran-2-carboxamide], the EC50 under setting [1] is 0.0001 to 0.01 µM. Turning to `CC(=O)N(C1CCC(C)(C)CC1)[C@H]1C[C@@H](C(=O)N2CCN(C)CC2)N(C(=O)[C@@H]2CN(C(C)(C)C)C[C@H]2c2ccc(Cl)cc2)C1` [Example 1, N-{(3S,5S)-1-{[(3S,4R)-1-tert-butyl-4-(4-chlorophenyl)pyrrolidin-3-yl]carbonyl}-5-[(4-methylpiperazin-1-yl)carbonyl]pyrrolidin-3-yl}-N-(4,4-dimethylcyclohexyl)acetamide], the EC50 was 0.0001 to 0.01 µM under setting [1] and 0.01 µM under setting [2]. In the case of `CC(=O)N(C1CCC(C)(C)CC1)[C@H]1C[C@@H](C(=O)N2CCNCC2)N(C(=O)[C@@H]2CN(C(C)(C)C)C[C@H]2c2ccc(F)cc2F)C1` [Example 2, N-[(3S,5S)-1-{[(3S,4R)-1-tert-butyl-4-(2,4-difluorophenyl)pyrrolidin-3-yl]carbonyl}-5-(piperazin-1-ylcarbonyl)pyrrolidin-3-yl]-N-(4,4-dimethylcyclohexyl)acetamide], the EC50 is 0.0001 to 0.01 µM under setting [1] and 0.006 µM under setting [2]. `CN1CCN(C(=O)[C@@H]2C[C@H](N(C(=O)[C@@H]3CCCO3)C3CCC(C)(C)CC3)CN2C(=O)[C@@H]2CN(C(C)(C)C)C[C@H]2c2ccc(Cl)cc2)CC1` [Example 3, (2S)-N-{(3S,5S)-1-{[(3S,4R)-1-tert-butyl-4-(4-chlorophenyl)pyrrolidin-3-yl]carbonyl}-5-[(4-methylpiperazin-1-yl)carbonyl]pyrrolidin-3-yl}-N-(4,4-dimethylcyclohexyl)tetrahydrofuran-2-carboxamide]: the EC50 under setting [1] was 0.0001 to 0.01 µM and the EC50 under setting [2] is 0.003 µM. The like results for `CN1CCN(C(=O)[C@@H]2C[C@H](N(C(=O)C(C)(C)CO)C3CCC(C)(C)CC3)CN2C(=O)[C@@H]2CN(C(C)(C)C)C[C@H]2c2ccc(Cl)cc2)CC1` [Example 4, N-{(3S,5S)-1-{[(3S,4R)-1-tert-butyl-4-(4-chlorophenyl)pyrrolidin-3-yl]carbonyl}-5-[(4-methylpiperazin-1-yl)carbonyl]pyrrolidine-3-yl}-N-(4,4-dimethylcyclohexyl)-3-hydroxy-2,2-dimethylpropanamide] were, in that order, 0.0001 to 0.01 µM and 0.0002 µM.

As to `CC(=O)N(C1CCC(C)(C)CC1)[C@H]1C[C@@H](C(=O)N2CCN(C)CC2)N(C(=O)[C@@H]2CN(C(C)(C)C)C[C@H]2c2ccc(F)cc2F)C1` [Example 5, N-{(3S,5S)-1-{[(3S,4R)-1-tert-butyl-4-(2,4-difluorophenyl)pyrrolidin-3-yl]carbonyl}-5-[(4-methylpiperazin-1-yl)carbonyl]pyrrolidin-3-yl}-N-(4,4-dimethylcyclohexyl)acetamide], under setting [1], the EC50 was in the range of 0.01 to 0.1 µM. Still for that read-out and setting: the figure for `CCN1CCN(C(=O)[C@@H]2C[C@H](N(C(C)=O)C3CCC(C)(C)CC3)CN2C(=O)[C@@H]2CN(C(C)(C)C)C[C@H]2c2ccc(F)cc2F)CC1` [Example 6, N-{(3S,5S)-1-{[(3S,4R)-1-tert-butyl-4-(2,4-difluorophenyl)pyrrolidin-3-yl]carbonyl}-5-[(4-ethylpiperazin-1-yl)carbonyl]pyrrolidin-3-yl}-N-(4,4-dimethylcyclohexyl)acetamide] is 0.01 to 0.1 µM; for `CC(=O)N(C1CCC(C)(C)CC1)[C@H]1C[C@@H](C(=O)N2CCN(C(C)C)CC2)N(C(=O)[C@@H]2CN(C(C)(C)C)C[C@H]2c2ccc(F)cc2F)C1` [Example 7, N-{(3S,5S)-1-{[(3S,4R)-1-tert-butyl-4-(2,4-difluorophenyl)pyrrolidin-3-yl]carbonyl}-5-[(4-isopropylpiperazin-1-yl)carbonyl]pyrrolidin-3-yl}-N-(4,4-dimethylcyclohexyl)acetamide] it is 0.01 to 0.1 µM.

On to `CCN1CCN(C(=O)[C@@H]2C[C@H](N(C(C)=O)C3CCC(C)(C)CC3)CN2C(=O)[C@@H]2CN(C(C)(C)C)C[C@H]2c2ccc(Cl)cc2)CC1` [Example 8, N-{(3S,5S)-1-{[(3S,4R)-1-tert-butyl-4-(4-chlorophenyl)pyrrolidin-3-yl]carbonyl}-5-[(4-ethylpiperazin-1-yl)carbonyl]pyrrolidin-3-yl}-N-(4,4-dimethylcyclohexyl)acetamide], for which the EC50 under setting [1] lay in the range of 0.0001 to 0.01 µM. The same measure, in the same setting: the figure for `CC(=O)N(C1CCC(C)(C)CC1)[C@H]1C[C@@H](C(=O)N2CCN(C(C)C)CC2)N(C(=O)[C@@H]2CN(C(C)(C)C)C[C@H]2c2ccc(Cl)cc2)C1` [Example 9, N-{(3S,5S)-1-{[(3S,4R)-1-tert-butyl-4-(4-chlorophenyl)pyrrolidin-3-yl]carbonyl}-5-[(4-isopropylpiperazin-1-yl)carbonyl]pyrrolidin-3-yl}-N-(4,4-dimethylcyclohexyl)acetamide] is 0.0001 to 0.01 µM; for `CN1CCN(C(=O)[C@@H]2C[C@H](N(C(=O)C(C)(C)C)C3CCC(C)(C)CC3)CN2C(=O)[C@@H]2CN(C(C)(C)C)C[C@H]2c2ccc(Cl)cc2)CC1` [Example 10, N-{(3S,5S)-1-{[(3S,4R)-1-tert-butyl-4-(4-chlorophenyl)pyrrolidin-3-yl]carbonyl}-5-[(4-methylpiperazin-1-yl)carbonyl]pyrrolidin-3-yl}-N-(4,4-dimethylcyclohexyl)-2,2-dimethylpropanamide] it is 0.0001 to 0.01 µM; for `CN1CCN(C(=O)[C@@H]2C[C@H](N(C(=O)C(C)(C)C)C3CCC(C)(C)CC3)CN2C(=O)[C@@H]2CN(C(C)(C)C)C[C@H]2c2ccc(F)cc2F)CC1` [Example 11, N-{(3S,5S)-1-{[(3S,4R)-1-tert-butyl-4-(2,4-difluorophenyl)pyrrolidin-3-yl]carbonyl}-5-[(4-methylpiperazin-1-yl)carbonyl]pyrrolidin-3-yl}-N-(4,4-dimethylcyclohexyl)-2,2-dimethylpropanamide] it is 0.0001 to 0.01 µM.

Turning to `CCN1CCN(C(=O)[C@@H]2C[C@H](N(C(=O)[C@@H]3CCCO3)C3CCC(C)(C)CC3)CN2C(=O)[C@@H]2CN(C(C)(C)C)C[C@H]2c2ccc(Cl)cc2)CC1` [Example 12, (2S)-N-{(3S,5S)-1-{[(3S,4R)-1-tert-butyl-4-(4-chlorophenyl)pyrrolidin-3-yl]carbonyl}-5-[(4-ethylpiperazin-1-yl)carbonyl]pyrrolidin-3-yl}-N-(4,4-dimethylcyclohexyl)tetrahydrofuran-2-carboxamide], under setting [1], the concentration for a half-maximal effect (EC50) lay within 0.0001 to 0.01 µM. On the same count and under the same terms, the figure for `CC(C)N1CCN(C(=O)[C@@H]2C[C@H](N(C(=O)[C@@H]3CCCO3)C3CCC(C)(C)CC3)CN2C(=O)[C@@H]2CN(C(C)(C)C)C[C@H]2c2ccc(Cl)cc2)CC1` [Example 13, (2S)-N-{(3S,5S)-1-{[(3S,4R)-1-tert-butyl-4-(4-chlorophenyl)pyrrolidin-3-yl]carbonyl}-5-[(4-isopropylpiperazin-1-yl)carbonyl]pyrrolidin-3-yl}-N-(4,4-dimethylcyclohexyl)tetrahydrofuran-2-carboxamide] is 0.0001 to 0.01 µM.
